# Reference: paper PMC6179045, “Design, synthesis and biological evaluation of tricyclic pyrazolo[1,5-c][1,3]benzoxazin-5(5H)-one scaffolds as selective BuChE inhibitors” (Journal of Enzyme Inhibition and Medicinal Chemistry, 2018)
# Where two headings read alike, the source gives them in different places.
# Key:
# [1] = target: T1, BuChE from equine serum (eqBuChE) (Equus caballus, UniProt P81908); experiment: BuChE activity assay (modified Ellman's method); type: biochemical, equine (horse); details: for inhibition at 20 µM / inhibition % at 20 µM BuChE: 20 µM compound; for IC50: mean ± SEM, n = 3
# T1 construct: BuChE from equine serum (C4290-1KU; Sigma); purchased Sigma C4290-1KU; host or cells: equine serum
# Protocol: (§1) Enzymatic activity assays were performed on AChE from electric eel (C3389-500UN; Sigma) and BuChE from equine serum (C4290-1KU; Sigma), according to Ellman’s method with light modification. The experiment was performed in 48-well plates in a final volume of 500 µl. Each well contained 0.036 U/ml of EeAChE or eqBuChE, and 0.1 M pH = 8 phosphate buffer. They were incubated for 20 min at different concentrations of test compound at 37 °C. […] The DTNB produced the yellow anion 5-thio-2-nitrobenzoic acid along with the enzymatic degradation of acetylthiocholine or butyrylthiocholine. The absorbance of each assay was measured at 410 nm after 20 min in a Biotek Synergy HTX Multi-Mode reader. The IC50 values were calculated graphically from inhibition curves (log inhibitor concentration vs percent of inhibition). A control experiment was performed under the same conditions without inhibitor and the blank contained buffer, DMSO, DTNB and substrate.
# [2] = target: T2, AChE from electric eel (EeAChE) (Electrophorus electricus, UniProt O42275); experiment: AChE activity assay (modified Ellman's method); type: biochemical; details: for IC50: mean ± SEM, n = 3
# T2 construct: AChE from electric eel (C3389-500UN; Sigma); purchased Sigma C3389-500UN
# Protocol: as §1
# [3] = tested on: differentiated PC12 cells; experiment: Neuroprotective effect against H2O2-induced damage in differentiated PC12 cells; type: cell-based; details: Rattus norvegicus, PC-12, 25 µM compound 3 h before H2O2 (300 µM), 24 h, MTT, p < .05 vs. H2O2 alone, read-out: cell viability (neuroprotective activity)
# Protocol: The differentiated PC12 cells and oxidative agent H2O2 were used as in vitro model to assess neuronal differentiation and neurobiochemical and neurobiological properties[39]^,[44]. Differentiated PC12 cells were incubated with different concentrations of compounds 6a and 6g for 3 h before treatment with H2O2 (300 µM). Cell viability was measured after 24 h using MTT method. Briefly, 20 µL of 0.5 mg/ml MTT reagent was added into the cells and incubated for 4 h. After 4 h, cell culture was removed and then 150 µl DMSO was added to dissolve the formazan. OD570 value was measured at 570 nm on the Biotek Synergy HTX Multi-Mode reader. Results were adjusted by OD570 value in the blank.
# . The differentiated PC12 cells were pretreated with three concentrations (10, 25 and 50 µM) for 3 h, before treatment with H2O2 (300 µM), and cell viability was measured after 24 h using MTT method. […]. Neuroprotective activity of compounds 6a and 6g […] was evaluated by subjecting PC12 cells to H2O2-induced damage. […]
# eqBuChE = target: T3, eqBuChE (Equus caballus, UniProt P81908); experiment: Kinetic study of eqBuChE inhibition (Lineweaver-Burk plots); type: biochemical, equine (horse)
# T3 construct: BuChE from equine serum (C4290-1KU; Sigma); purchased Sigma C4290-1KU; host or cells: equine serum
# Protocol: . The kinetic type of enzyme inhibition was obtained through the modified Ellman’s method and Lineweaver–Burk secondary plots. Apparent inhibition constants and kinetic parameters were calculated within the “Enzyme kinetics” module of Prism 5.
# The kinetic studies were carried out at three fixed inhibitor concentrations (5, 10 and 20 µM).
# [4] = Cytotoxicity MTT assay in PC12 cells; type: cell-based; details: rat, 1-50 µM, read-out: relative cell viability (cytotoxicity)
# Protocol: PC12 cells were used to evaluate cell cytotoxicity by methyl thiazolyl tetrazolium (MTT) assay. PC12 cells were cultured in DMEM containing 10% fetal bovine serum, 100 µg/ml streptomycin and 100 units/ml penicillin at 37 °C in a 5% CO2 humidified atmosphere, and inoculated at 1 × 10^4 cells per well in 96-well plate. After cultured for 24 h, the cells were treated with different concentration of compounds in DMEM for 24 h. Then 20 µl of 0.5 mg/ml MTT reagent was added into the cells and incubated for 4 h. After 4 h, cell culture was removed and then 150 µl DMSO was added to dissolve the formazan. The optical density was measured at 570 nm (OD570). Cell viability was calculated from three independent experiments. OD570 of formazan in blank group was set as 100% of viability.
# Blank: cultured with fresh medium only.
# [5] = Log P assessment (shake flask method, octanol/PBS); type: physicochemical; details: octanol/PBS pH 7.4, shake flask, 37 °C
# Protocol: Log P, defined as the logarithm of octanol–water partition coefficient, is an important parameter to evaluate lipophilicity of compounds[45]. It can be calculated by determining the concentration of compound in octanol phase and water phase until the partition equilibrium was completed. In this work, log P of title compounds was measured by the shake flask method with slight modification. PBS (pH = 7.4) was used as the water. Both the octanol and the aqueous phase were saturated with each other before use. The assay mixture containing test compounds was shaken at 37 °C. After 24 h, the mixture was centrifuged at 4,000 rpm for 30 min, followed by the measurement with UV spectrophotometer. Experiments were conducted in triplicate and log p values were calculated.
# [6] = BuChE from horse serum, read-out: inhibition % at 20 µM BuChE
# [7] = AChE from electric eel, 20 µM compound, read-out: inhibition at 20 µM AChE
# [8] = AChE from electric eel, 20 µM compound
# [9] = AChE from electric eel, 20 µM compound, read-out: inhibition % at 20 µM AChE
# [10] = BuChE from horse serum, read-out: inhibition at 20 µM BuChE
# T1 sequence (P81908 whole entry): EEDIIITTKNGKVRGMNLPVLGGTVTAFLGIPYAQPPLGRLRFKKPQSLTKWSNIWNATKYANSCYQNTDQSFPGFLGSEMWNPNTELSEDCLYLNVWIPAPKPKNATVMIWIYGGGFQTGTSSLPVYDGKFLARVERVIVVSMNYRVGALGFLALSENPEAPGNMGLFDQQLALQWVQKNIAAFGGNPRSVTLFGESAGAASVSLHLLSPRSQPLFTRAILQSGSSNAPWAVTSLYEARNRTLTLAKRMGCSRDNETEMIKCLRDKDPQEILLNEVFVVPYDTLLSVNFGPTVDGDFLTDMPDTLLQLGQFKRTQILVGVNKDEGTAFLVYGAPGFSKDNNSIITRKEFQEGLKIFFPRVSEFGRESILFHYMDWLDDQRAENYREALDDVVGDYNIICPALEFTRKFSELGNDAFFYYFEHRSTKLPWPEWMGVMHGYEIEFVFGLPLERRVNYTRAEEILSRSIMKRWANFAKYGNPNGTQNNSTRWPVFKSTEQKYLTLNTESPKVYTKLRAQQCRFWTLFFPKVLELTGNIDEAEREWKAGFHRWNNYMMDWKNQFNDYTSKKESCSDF
# T2 sequence (O42275 24-633): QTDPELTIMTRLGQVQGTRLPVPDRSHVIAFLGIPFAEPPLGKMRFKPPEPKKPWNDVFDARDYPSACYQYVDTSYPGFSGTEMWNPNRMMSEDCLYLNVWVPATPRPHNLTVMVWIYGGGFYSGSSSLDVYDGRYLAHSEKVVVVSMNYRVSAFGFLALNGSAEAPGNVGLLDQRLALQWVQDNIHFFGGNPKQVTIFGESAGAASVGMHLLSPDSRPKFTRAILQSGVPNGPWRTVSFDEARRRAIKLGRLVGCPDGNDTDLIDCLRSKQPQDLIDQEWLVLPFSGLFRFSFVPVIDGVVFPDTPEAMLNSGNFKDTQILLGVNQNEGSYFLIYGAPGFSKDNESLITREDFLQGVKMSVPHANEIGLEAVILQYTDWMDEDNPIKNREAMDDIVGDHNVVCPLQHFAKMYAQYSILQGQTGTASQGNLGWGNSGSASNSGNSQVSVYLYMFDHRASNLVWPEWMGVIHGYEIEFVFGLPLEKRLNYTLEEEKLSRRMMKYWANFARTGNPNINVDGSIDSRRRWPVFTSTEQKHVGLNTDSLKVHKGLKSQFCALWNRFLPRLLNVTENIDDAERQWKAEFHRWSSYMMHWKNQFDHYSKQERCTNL
# T3 sequence (P81908 whole entry): as the sequence (P81908 whole entry) above
smiles,measurement,setting,value
"S=C1Oc2ccccc2C2CC(c3ccccc3)=NN12 (stereo not shown) [Compound 3b, 2-Phenyl-1,10b-dihydro-5H-pyrazolo[1,5-c][1,3]benzoxazin-5-thione]",inhibition at 20 µM,[1]; [6],9 ± 3%
same,inhibition at 20 µM,[2]; [7],< 0%
"CC1=NN2C(=O)Oc3c(Br)cccc3C2C1 (stereo not shown) [Compound 6q, 7-Bromo-2-methyl-1,10b-dihydro-5H-pyrazolo[1,5-c][1,3]benzoxazin-5-one]",IC50,[1]; BuChE from horse serum,3.22 ± 1.06 µM
same,inhibition at 20 µM,[2]; [7],< 0%
"Cc1ccc(C2=NN3C(=O)Oc4ccc(Cl)cc4C3C2)cc1 (stereo not shown) [Compound 3e, 9-Chloro-2-(4-methyl)phenyl-1,10b-dihydro-5H-pyrazolo[1,5-c][1,3]benzoxazin-5-one]",inhibition % at 20 µM BuChE,[1]; BuChE from horse serum,32 ± 5%
same,inhibition % at 20 µM AChE,[2]; [8],32 ± 2%
"CC1=NN2C(=O)Oc3c(Cl)cc(Cl)cc3C2C1 (stereo not shown) [Compound 6a, 7,9-Dichloro-2-methyl-1,10b-dihydro-5H-pyrazolo[1,5-c][1,3]benzoxazin-5-one]",viability at 25 µM,[3],> 70%
same,IC50,[1]; BuChE from horse serum,1.06 ± 0.11 µM
same,type of BuChE inhibition,eqBuChE; Lineweaver-Burk plots,mixed-type inhibition
same,Ki,"eqBuChE; Lineweaver-Burk secondary plots, inhibitor 5, 10 and 20 µM, read-out: dissociation constant Ki against BuChE",7.46 µM
same,inhibition at 20 µM,[2]; [9],39 ± 3%
same,viability at 24 h,[4],> 90%
same,logP at 24 h,[5],1.5
"O=C1Oc2ccccc2C2CC(c3ccccc3)=NN12 (stereo not shown) [Compound 3a, 2-Phenyl-1,10b-dihydro-5H-pyrazolo[1,5-c][1,3]benzoxazin-5-one]",IC50,[1]; BuChE from horse serum,9.47 ± 0.23 µM
same,inhibition at 20 µM,[2]; [7],< 0%
"CC1=NN2C(=S)Oc3c(Br)cc(Br)cc3C2C1 (stereo not shown) [Compound 6d, 7,9-Dibromo-2-methyl-1,10b-dihydro-5H-pyrazolo[1,5-c][1,3]benzoxazin-5-thione]",inhibition at 20 µM,[1]; [10],< 0%
same,inhibition at 20 µM,[2]; [9],26 ± 3%
"CC1=NN2C(=S)Oc3c(Cl)cc(Cl)cc3C2C1 (stereo not shown) [Compound 6b, 7,9-Dichloro-2-methyl-1,10b-dihydro-5H-pyrazolo[1,5-c][1,3]benzoxazin-5-thione]",inhibition at 20 µM,[1]; [10],< 0%
same,inhibition at 20 µM,[2]; [9],25 ± 1%
"CC1=NN2C(=S)Oc3ccc(C)cc3C2C1 (stereo not shown) [Compound 6n, 2,9-Dimethyl-1,10b-dihydro-5H-pyrazolo[1,5-c][1,3]benzoxazin-5-thione]",inhibition at 20 µM,[1]; [10],< 0%
same,inhibition at 20 µM,[2]; [9],15 ± 2%
"CC1=NN2C(=O)Oc3ccccc3C2C1 (stereo not shown) [Compound 6o, 2-Methyl-1,10b-dihydro-5H-pyrazolo[1,5-c][1,3]benzoxazin-5-one]",inhibition at 20 µM,"[1]; read-out: inhibition % at 20 µM BuChE, BuChE from horse serum",50.1 ± 4.3%
same,inhibition at 20 µM,[2]; read-out: inhibition at 20 µM AChE,< 0%
"O=C1Oc2ccc(Cl)cc2C2CC(c3ccc(Cl)cc3)=NN12 (stereo not shown) [Compound 3d, 9-Chloro-2-(4-chloro)phenyl-1,10b-dihydro-5H-pyrazolo[1,5-c][1,3]benzoxazin-5-one]",inhibition % at 20 µM BuChE,[1]; BuChE from horse serum,41 ± 6%
same,inhibition % at 20 µM AChE,[2]; [8],39 ± 1%
"Cc1ccc(C2=NN3C(=O)Oc4ccccc4C3C2)cc1 (stereo not shown) [Compound 3f, 2–(4-Methyl)phenyl-1,10b-dihydro-5H-pyrazolo[1,5-c][1,3]benzoxazin-5-one]",inhibition % at 20 µM BuChE,[1]; BuChE from horse serum,32 ± 2%
same,inhibition % at 20 µM AChE,[2]; [8],48 ± 3%
"CC1=NN2C(=O)Oc3c(Br)cc(Br)cc3C2C1 (stereo not shown) [Compound 6c, 7,9-Dibromo-2-methyl-1,10b-dihydro-5H-pyrazolo[1,5-c][1,3]benzoxazin-5-one]",IC50,[1]; BuChE from horse serum,1.63 ± 0.42 µM
same,IC50,[2]; AChE from electric eel,10.7 ± 0.64 µM
same,logP at 24 h,[5],1.48
"CC1=NN2C(=S)Oc3c(Br)cc(Cl)cc3C2C1 (stereo not shown) [Compound 6j, 7-Bromo-9-chloro-2-methyl-1,10b-dihydro-5H-pyrazolo[1,5-c][1,3]benzoxazin-5-thione]",inhibition at 20 µM,[1]; [10],< 0%
same,inhibition at 20 µM,[2]; [9],14 ± 2%
"O=C1Oc2ccccc2C2CC(c3ccc(F)cc3)=NN12 (stereo not shown) [Compound 3c, 2-(4-Fluoro)phenyl-1,10b-dihydro-5H-pyrazolo[1,5-c][1,3]benzoxazin-5-one]",inhibition % at 20 µM BuChE,[1]; BuChE from horse serum,15 ± 2%
same,inhibition % at 20 µM AChE,[2]; [8],15 ± 3%
"COc1cccc2c1OC(=S)N1N=C(C)CC21 (stereo not shown) [Compound 6l, 2-Methyl-7-methoxy-1,10b-dihydro-5H-pyrazolo[1,5-c][1,3]benzoxazin-5-thione]",inhibition at 20 µM,[1]; [6],2 ± 2%
same,inhibition at 20 µM,[2]; [9],30 ± 2%
"COc1cccc2c1OC(=O)N1N=C(C)CC21 (stereo not shown) [Compound 6k, 2-Methyl-7-methoxy-1,10b-dihydro-5H-pyrazolo[1,5-c][1,3]benzoxazin-5-one]",inhibition % at 20 µM BuChE,[1]; BuChE from horse serum,14 ± 3%
same,inhibition at 20 µM,[1]; [6],< 20%
same,inhibition at 20 µM,[2]; [9],35 ± 3%
"CC1=NN2C(=S)Oc3ccccc3C2C1 (stereo not shown) [Compound 6p, 2-Methyl-1,10b-dihydro-5H-pyrazolo[1,5-c][1,3]benzoxazin-5-thione]",inhibition at 20 µM,[1]; [10],< 0%
same,inhibition at 20 µM,[2]; [7],< 0%
"CC1=NN2C(=O)Oc3ccc(Cl)cc3C2C1 (stereo not shown) [Compound 6e, 9-Chloro-2-methyl-1,10b-dihydro-5H-pyrazolo[1,5-c][1,3]benzoxazin-5-one]",IC50,[1]; BuChE from horse serum,6.29 ± 0.65 µM
same,inhibition at 20 µM,[2]; [9],16 ± 1%
"CC1=NN2C(=O)Oc3c(Br)cc(Cl)cc3C2C1 (stereo not shown) [Compound 6i, 7-Bromo-9-chloro-2-methyl-1,10b-dihydro-5H-pyrazolo[1,5-c][1,3]benzoxazin-5-one]",IC50,[1]; BuChE from horse serum,2.44 ± 0.44 µM
same,IC50,[2]; AChE from electric eel,13 ± 0.32 µM
"CC1=NN2C(=O)Oc3ccc(C)cc3C2C1 (stereo not shown) [Compound 6m, 2,9-Dimethyl-1,10b-dihydro-5H-pyrazolo[1,5-c][1,3]benzoxazin-5-one]",inhibition % at 20 µM BuChE,[1]; BuChE from horse serum,14 ± 1%
same,inhibition at 20 µM,[1]; [6],< 20%
same,inhibition at 20 µM,[2]; [7],< 0%
"CC1=NN2C(=S)Oc3ccc(Br)cc3C2C1 (stereo not shown) [Compound 6h, 9-Bromo-2-methyl-1,10b-dihydro-5H-pyrazolo[1,5-c][1,3]benzoxazin-5-thione]",inhibition at 20 µM,[1]; [10],< 0%
same,inhibition at 20 µM,[2]; [9],27 ± 2%
"CC1=NN2C(=S)Oc3ccc(Cl)cc3C2C1 (stereo not shown) [Compound 6f, 9-Chloro-2-methyl-1,10b-dihydro-5H-pyrazolo[1,5-c][1,3]benzoxazin-5-thione]",inhibition at 20 µM,[1]; [10],< 0%
same,inhibition at 20 µM,[2]; [9],18 ± 2%
